Each structure is given as a SMILES string. Values joined by “and” are separate entries in the source; they are usually repeats but may differ in a detail not shown here. Equal values may be shown once. Inconclusive results and toxic doses are left out.

The test system of this test is BDF1 mice, P388 leukemia ip, median survival T/C. As to the kind of experiment: NCI In Vivo Anticancer Drug Screen. Data for tumor model P388 Leukemia (intraperitoneal) in B6D2F1 (BDF1) mice. The settings on record: endpoint: median survival time, higher = longer survival. The gist of the method:
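Reported as T/C, where T is the survival measurement in dosed animals and C the same measurement in vehicle controls.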

Where [1] appears, read: dose: 50.0 mg/kg/injection, schedule: Q04DX003 (ip), vehicle: saline with Tween-80.
[2] abbreviates: dose: 100.0 mg/kg/injection, schedule: Q04DX003 (ip), vehicle: saline with Tween-80.
[3] abbreviates: dose: 200.0 mg/kg/injection, schedule: Q04DX003 (ip), vehicle: saline with Tween-80.
Setting [4] is: dose: 100.0 mg/kg/injection, schedule: Q04DX002 (ip), vehicle: saline with Tween-80.
Setting [5] is: dose: 200.0 mg/kg/injection, schedule: Q04DX002 (ip), vehicle: saline with Tween-80.
Where [6] appears, read: dose: 100.0 mg/kg/injection, schedule: Q01DX009 (ip), vehicle: saline with Tween-80.
[7] abbreviates: dose: 200.0 mg/kg/injection, schedule: Q01DX009 (ip), vehicle: saline with Tween-80.
Setting [8] is: dose: 25.0 mg/kg/injection, schedule: Q01DX009 (ip), vehicle: saline with Tween-80.
[9] abbreviates: dose: 50.0 mg/kg/injection, schedule: Q01DX009 (ip), vehicle: saline with Tween-80.
Setting [10] is: dose: 400.0 mg/kg/injection, schedule: Q04DX003 (ip), vehicle: saline with Tween-80.

As for `Clc1nc(SC2=NCCN2)c2[nH]cnc2n1`, the T/C reads like this: (dose: 12.5 mg/kg/injection, schedule: Q04DX003 (ip), vehicle: saline with Tween-80) 108 % of control; (dose: 33.0 mg/kg/injection, schedule: Q04DX003 (ip), vehicle: saline with Tween-80) 118 % of control; under setting [1], 154 % of control.
On to `Cc1cc(NCCCCNCCCNc2cc(C)nc3cc(N)ccc23)c2ccc(N)cc2n1`, for which the T/C (dose: 12.5 mg/kg/injection, schedule: Q01DX009 (ip), vehicle: other) was 155 % of control.
On to `O=C1C(=O)c2ccccc2C([O-])=C1[n+]1ccccc1`, for which the T/C is 109 % of control under setting [1], 95 % of control under setting [2] and 90 % of control under setting [3].
Take `COc1cc(CC#N)ccc1C`: the T/C (dose: 25.0 mg/kg/injection, schedule: Q01DX009 (ip), vehicle: Klucel (hydroxypropylcellulose) (HPC)) is 92 % of control.
As for `Cc1ccc(-n2c(=S)[nH]c3ccccc3c2=O)cc1C`, the T/C was 100 % of control (dose: 100.0 mg/kg/injection, schedule: Q01DX009 (ip), vehicle: Klucel (hydroxypropylcellulose) (HPC)); 105 % of control (dose: 100.0 mg/kg/injection, schedule: Q04DX003 (ip), vehicle: Klucel (hydroxypropylcellulose) (HPC)); 86 % of control (dose: 200.0 mg/kg/injection, schedule: Q01DX009 (ip), vehicle: Klucel (hydroxypropylcellulose) (HPC)); 100 % of control (dose: 200.0 mg/kg/injection, schedule: Q04DX003 (ip), vehicle: Klucel (hydroxypropylcellulose) (HPC)); 91 % of control (dose: 400.0 mg/kg/injection, schedule: Q01DX009 (ip), vehicle: Klucel (hydroxypropylcellulose) (HPC)); 100 % of control (dose: 400.0 mg/kg/injection, schedule: Q04DX003 (ip), vehicle: Klucel (hydroxypropylcellulose) (HPC)).
As for `CC(CC#N)NC(=O)C1CCC(N)=N1` (stereo unspecified), the T/C reads like this: (dose: 100.0 mg/kg/injection, schedule: Q01DX009 (ip), vehicle: saline) 111 % of control; (dose: 400.0 mg/kg/injection, schedule: Q01DX009 (ip), vehicle: saline) 103 % of control.
Regarding `CCN(CC)CCOC(=O)C(c1ccccc1)C1(O)CCCC(C)C1` (stereo unspecified), the T/C reads like this: (dose: 50.0 mg/kg/injection, schedule: Q01DX005 (ip), vehicle: saline) 98 % of control; (dose: 100.0 mg/kg/injection, schedule: Q01DX005 (ip), vehicle: saline) 90 % of control; (dose: 200.0 mg/kg/injection, schedule: Q01DX005 (ip), vehicle: saline) 110 % of control.
Take `Nc1ncnc2c1cnn2CCCl`: the T/C was 122 % of control under setting [2] and 118 % of control under setting [3].
On to `O=C(Nc1ccccc1)c1c(-c2ccccc2)oc2ccccc2c1=O`, for which the T/C reads like this: (dose: 50.0 mg/kg/injection, schedule: Q04DX002 (ip), vehicle: saline with Tween-80) 95 % of control; under setting [4], 115 % of control; under setting [5], 100 % of control.
On to `O=[N+]([O-])c1cccc(O)c1`, for which the T/C is, setting by setting: (dose: 100.0 mg/kg/injection, schedule: Q01DX001 (ip), vehicle: saline) 100 % of control; under setting [6], 109 % of control; (dose: 100.0 mg/kg/injection, schedule: Q04DX003 (ip), vehicle: saline) 118 % of control; (dose: 200.0 mg/kg/injection, schedule: Q01DX001 (ip), vehicle: saline) 100 % of control; under setting [7], 86 % of control; (dose: 200.0 mg/kg/injection, schedule: Q04DX003 (ip), vehicle: saline) 100 % of control. In addition, where the note is “dose: 400.0 mg/kg/injection, schedule: Q01DX001 (ip), vehicle: saline”, the T/C was 100 % of control.
Turning to `O=NN(CCBr)C(=O)NC1CCCCC1`, the T/C reads like this: (dose: 1.5 mg/kg/injection, schedule: Q01DX009 (ip), vehicle: saline with Tween-80) 109 % of control; (dose: 3.0 mg/kg/injection, schedule: Q01DX009 (ip), vehicle: saline with Tween-80) 109 % of control; (dose: 6.0 mg/kg/injection, schedule: Q01DX009 (ip), vehicle: saline with Tween-80) 113 % of control; (dose: 100.0 mg/kg/injection, schedule: Q01DX009 (ip), vehicle: gum acacia) 103 % of control; under setting [6], 122 % of control; (dose: 100.0 mg/kg/injection, schedule: Q04DX003 (ip), vehicle: gum acacia) 113 % of control. For the same molecule, the T/C was 109 % of control under setting [2]; 115 % of control (dose: 133.0 mg/kg/injection, schedule: Q01DX009 (ip), vehicle: gum acacia); 95 % of control (dose: 150.0 mg/kg/injection, schedule: Q01DX009 (ip), vehicle: saline with Tween-80); 118 % of control and 122 % of control under setting [7]; 104 % of control (dose: 200.0 mg/kg/injection, schedule: Q04DX003 (ip), vehicle: gum acacia); 109 % of control under setting [3]. In addition, the T/C reads like this: (dose: 300.0 mg/kg/injection, schedule: Q01DX009 (ip), vehicle: gum acacia) 100 % of control; (dose: 400.0 mg/kg/injection, schedule: Q01DX009 (ip), vehicle: gum acacia) 103 % of control; (dose: 400.0 mg/kg/injection, schedule: Q04DX003 (ip), vehicle: gum acacia) 91 % of control.
On to `C[N+](C)(Cn1nc(Cl)c2cc([N+](=O)[O-])ccc21)Cn1nc(Cl)c2cc([N+](=O)[O-])ccc21`, for which the T/C was 115 % of control under setting [2] and 153 % of control under setting [3].
Regarding `CCN(CC)CCOc1ccc(C2=C(c3ccccc3)CCc3cc(OC)ccc32)cc1`, the T/C was 90 % of control (dose: 12.5 mg/kg/injection, schedule: Q01DX009 (ip), vehicle: saline with Tween-80); 90 % of control under setting [8]; 95 % of control and 118 % of control under setting [9].
On to `Cc1ccc(C)c(-n2nnc3ccccc3c2=O)c1`, for which the T/C is, setting by setting: under setting [6], 100 % of control; under setting [2], 100 % of control; under setting [7], 86 % of control; under setting [3], 90 % of control; (dose: 400.0 mg/kg/injection, schedule: Q01DX009 (ip), vehicle: saline with Tween-80) 100 % of control; under setting [10], 100 % of control.
As for `C=C1C(=O)[C@]23C[C@H]1CC[C@H]2[C@@]12CO[C@@H](O)[C@@H]1C(C)(C)[C@@H](O)C[C@@H]2OC3=O`, the T/C runs as follows: (dose: 3.13 mg/kg/injection, schedule: Q01DX009 (ip), vehicle: saline with Tween-80) 112 % of control; (dose: 6.25 mg/kg/injection, schedule: Q01DX009 (ip), vehicle: saline with Tween-80) 118 % of control; under setting [8], 117 % of control; under setting [9], 119 % of control and 121 % of control; under setting [6], 112 % of control; under setting [7], 120 % of control.
Turning to `COc1cc([N+](=O)[O-])c(C)cc1NC(=O)c1ccc(OC)c(OC)c1`, the T/C is, setting by setting: (dose: 0.78 mg/kg/injection, schedule: Q01DX009 (ip), vehicle: saline) 100 % of control; (dose: 1.56 mg/kg/injection, schedule: Q01DX009 (ip), vehicle: saline) 115 % of control; (dose: 3.12 mg/kg/injection, schedule: Q01DX009 (ip), vehicle: saline) 88 % of control; (dose: 6.25 mg/kg/injection, schedule: Q01DX009 (ip), vehicle: saline) 86 % of control.
For the molecule `Cc1ccc[nH]c1=O`, the T/C reads like this: (dose: 50.0 mg/kg/injection, schedule: Q04DX003 (ip), vehicle: saline sonified) 91 % of control; (dose: 100.0 mg/kg/injection, schedule: Q04DX003 (ip), vehicle: saline sonified) 91 % of control; (dose: 200.0 mg/kg/injection, schedule: Q04DX003 (ip), vehicle: saline sonified) 100 % of control.
With `CC(C(=O)O)S(=O)(=O)c1ccccc1` (stereo unspecified), the T/C reads like this: under setting [4], 93 % of control; under setting [5], 102 % of control.
For `CC(=O)O[C@H]1[C@H]2O[C@]23[C@@H]2CC[C@@H]4C[C@@H](OC(=O)CCC(=O)O)CC[C@]4(C)[C@H]2CC[C@]3(C)[C@H]1c1ccc(=O)oc1`, the T/C is 100 % of control (dose: 0.13 mg/kg/injection, schedule: Q01DX009 (ip), vehicle: Klucel (hydroxypropylcellulose) (HPC)); 101 % of control (dose: 0.25 mg/kg/injection, schedule: Q01DX009 (ip), vehicle: Klucel (hydroxypropylcellulose) (HPC)); 101 % of control (dose: 0.5 mg/kg/injection, schedule: Q01DX009 (ip), vehicle: Klucel (hydroxypropylcellulose) (HPC)).
With `COc1ccc(NC(=O)CCC(=O)O)cc1`, the T/C is 92 % of control under setting [2], 88 % of control under setting [3] and 88 % of control under setting [10].
In the case of `CCCCCCNc1c(F)c(C#N)c(F)c(F)c1C#N`, the T/C runs as follows: under setting [9], 103 % of control; under setting [6], 93 % of control; under setting [7], 110 % of control.

(Values after PubChem BioAssay AID328 (DTP/NCI, 2004).)
